Measurements as given in ChEMBL document CHEMBL4818987, “Recent advances of podophyllotoxin/epipodophyllotoxin hybrids in anticancer activity, mode of action, and structure-activity relationship: An update (2010-2020)” (Eur J Med Chem, 2020).

Columns and labels:
[1] = tested on: K562; assay: Potency index, ratio of doxorubicin IC50 to compound IC50 for human K562 cells; assay type: functional
[2] = tested on: K562; assay: Cytotoxicity against human K562 cells incubated for 72 hrs by CCK8 assay; assay type: functional, cell-based; conditions: K562, 72 h
[3] = Resistance index, ratio of IC50 for human K562/ADR cells to IC50 for human K562 cells; assay type: functional
[4] = tested on: K562/Adr; assay: Cytotoxicity against human K562/ADR cells incubated for 72 hrs by CCK8 assay; assay type: functional, cell-based
[5] = tested on: K562/Adr; assay: Potency index, ratio of doxorubicin IC50 to compound IC50 for human K562/ADR cells; assay type: functional
[6] = tested on: A549; assay: Antiproliferative activity against human A549 cells incubated for 3 days by MTT assay; assay type: functional, cell-based; conditions: A549, 72 h
[7] = tested on: HepG2; assay: Antiproliferative activity against human HepG2 cells incubated for 3 days by MTT assay; assay type: functional, cell-based; conditions: HepG2, 72 h
[8] = tested on: HCT-116; assay: Antiproliferative activity against human HCT116 cells incubated for 3 days by MTT assay; assay type: functional, cell-based; conditions: HCT-116, 72 h
[9] = tested on: HeLa; assay: Antiproliferative activity against human HeLa cells by MTT assay; assay type: functional, cell-based
[10] = tested on: K562/A02; assay: Antiproliferative activity against human K562/A02 cells by MTT assay; assay type: functional, cell-based
[11] = tested on: HeLa; assay: Antiproliferative activity against human HeLa cells incubated for 48 hrs by MTT assay; assay type: functional, cell-based
[12] = tested on: MCF7; assay: Antiproliferative activity against human MCF7 cells incubated for 48 hrs by MTT assay; assay type: functional, cell-based; conditions: MCF7, 48 h
[13] = tested on: BGC-823; assay: Antiproliferative activity against human BGC-823 cells incubated for 48 hrs by MTT assay; assay type: functional, cell-based; conditions: BGC-823, 48 h
[14] = tested on: Huh-7; assay: Antiproliferative activity against human Huh7 cells incubated for 48 hrs by MTT assay; assay type: functional, cell-based; conditions: Huh-7, 48 h
[15] = tested on: A549; assay: Antiproliferative activity against human A549 cells incubated for 48 hrs by MTT assay; assay type: functional, cell-based; conditions: A549, 48 h
[16] = tested on: HepG2; assay: Antiproliferative activity against human HepG2 cells incubated for 48 hrs by MTT assay; assay type: functional, cell-based; conditions: HepG2, 48 h
[17] = tested on: L02; assay: Cytotoxicity against human HL7702 cells incubated for 48 hrs by MTT assay; assay type: cell-based; conditions: L02, 48 h
[18] = tested on: K562/VCR; assay: Cytotoxicity against human K562/VCR cells incubated for 72 hrs by CCK8 assay; assay type: functional, cell-based
[19] = tested on: K562/Adr; assay: Potency index, ratio of etoposide IC50 to test compound IC50 for antiproliferative activity against human K562/ADM cells; assay type: functional
[20] = tested on: K562; assay: Antiproliferative activity against human K562 cells incubated for 72 hrs by CCK8 assay; assay type: functional, cell-based; conditions: K562, 72 h
[21] = tested on: K562; assay: Potency index, ratio of etoposide IC50 to test compound IC50 for antiproliferative activity against human K562 cells; assay type: functional
[22] = tested on: K562/Adr; assay: Antiproliferative activity against human K562/ADR cells incubated for 72 hrs by CCK8 assay; assay type: functional, cell-based
[23] = tested on: HeLa; assay: Antiproliferative activity against human HeLa cells incubated for 72 hrs by MTT assay; assay type: functional, cell-based
[24] = tested on: HepG2; assay: Antiproliferative activity against human HepG2 cells incubated for 72 hrs by MTT assay; assay type: functional, cell-based; conditions: HepG2, 72 h
[25] = tested on: CT26; assay: Antiproliferative activity against […] cells incubated for 72 hrs by MTT assay; assay type: functional, cell-based; conditions: Mus musculus, CT26, 72 h
[26] = tested on: SK-OV-3; assay: Antiproliferative activity against human SK-OV-3 cells incubated for 72 hrs by MTT assay; assay type: functional, cell-based; conditions: SK-OV-3, 72 h
[27] = tested on: B16-F10; assay: Antiproliferative activity against mouse B16/F10 cells incubated for 72 hrs by MTT assay; assay type: functional, cell-based; conditions: B16-F10, 72 h
[28] = tested on: MCF7; assay: Antiproliferative activity against human MCF7 cells incubated for 72 hrs by MTT assay; assay type: functional, cell-based; conditions: MCF7, 72 h
[29] = tested on: A549; assay: Antiproliferative activity against human A549 cells incubated for 72 hrs by MTT assay; assay type: functional, cell-based; conditions: A549, 72 h
[30] = tested on: HeLa; assay: Antiproliferative activity against human HeLa cells incubated for 24 hrs by MTT assay; assay type: functional, cell-based
[31] = tested on: HepG2; assay: Antiproliferative activity against human HepG2 cells incubated for 24 hrs by MTT assay; assay type: functional, cell-based; conditions: HepG2, 24 h
[32] = tested on: L02; assay: Cytotoxicity against human L02 cells; assay type: cell-based
[33] = tested on: MCF7; assay: Antiproliferative activity against human MCF7 cells incubated for 24 hrs by MTT assay; assay type: functional, cell-based; conditions: MCF7, 24 h
[34] = tested on: A549; assay: Antiproliferative activity against human A549 cells incubated for 24 hrs by MTT assay; assay type: functional, cell-based; conditions: A549, 24 h
[35] = tested on: SMMC-7721; assay: Antiproliferative activity against human SMMC-7721 cells incubated for 48 hrs by MTT assay; assay type: functional, cell-based; conditions: SMMC-7721, 48 h
[36] = tested on: SW480; assay: Antiproliferative activity against human SW480 cells incubated for 48 hrs by MTT assay; assay type: functional, cell-based; conditions: SW480, 48 h
[37] = tested on: HL-60; assay: Antiproliferative activity against human HL-60 cells incubated for 48 hrs by MTT assay; assay type: functional, cell-based; conditions: HL-60, 48 h

Question: With COc1cc([C@@H]2c3cc4c(cc3[C@@H](OC(=O)/C=C/c3ccccc3)[C@H]3COC(=O)[C@H]23)OCO4)cc(OC)c1OC as the compound, how does the “Ratio IC50” value [1] read?
Answer: 2.2

Question: What about the IC50 [2] of the same compound?
Answer: 11 nM

Question: What about the “Ratio IC50” value [3] of the same compound?
Answer: 1.1

Question: What about the IC50 [4] of the same compound?
Answer: 11 nM

Question: And the “Ratio IC50” value [5]?
Answer: 2.2

Question: With COc1cc([C@@H]2c3cc4c(cc3[C@@H](NC(=S)NC(=O)c3cccs3)[C@H]3COC(=O)[C@H]23)OCO4)cc(OC)c1OC as the compound, how does the IC50 [6] read?
Answer: 100 nM

Question: What about the IC50 [7] of the same compound?
Answer: 100 nM

Question: What about the IC50 [8] of the same compound?
Answer: 100 nM

Question: Which results are given for C=CC(=O)O[C@@H]1c2cc3c(cc2[C@@H](c2cc(OC)c(OC)c(OC)c2)[C@H]2C(=O)OC[C@@H]21)OCO3?
Answer: Ratio IC50 [1]: 2.2; IC50 [2]: 11 nM; Ratio IC50 [3]: 1.1; IC50 [4]: 11 nM; Ratio IC50 [5]: 2.2

Question: With COc1cc([C@@H]2c3cc4c(cc3[C@@H](NCc3cc5cc(F)ccc5[nH]3)[C@H]3COC(=O)[C@H]23)OCO4)cc(OC)c1OC as the compound, how does the IC50 [9] read?
Answer: 100 nM

Question: And the IC50 [10]?
Answer: 100 nM

Question: Which IC50 [11] does the source give for COc1cc([C@@H]2c3cc4c(cc3[C@@H](Nc3ncccc3C)[C@H]3COC(=O)[C@H]23)OCO4)cc(OC)c1OC here?
Answer: 60 nM

Question: What about the IC50 [12] of the same compound?
Answer: 60 nM

Question: And the IC50 [13]?
Answer: 60 nM

Question: And the IC50 [14]?
Answer: 60 nM

Question: And the IC50 [15]?
Answer: 60 nM

Question: Which IC50 [16] does the source give for COc1cc([C@@H]2c3cc4c(cc3[C@@H](Sc3ncnc5nc[nH]c35)[C@H]3COC(=O)[C@H]23)OCO4)cc(OC)c1OC here?
Answer: 300 nM

Question: What about the IC50 [17] of the same compound?
Answer: 300 nM

Question: And the IC50 [13]?
Answer: 300 nM

Question: What about the IC50 [15] of the same compound?
Answer: 300 nM

Question: Which results are given for COc1cc([C@@H]2c3cc4c(cc3[C@H](OC(=O)c3ccc5cc[nH]c5c3)[C@H]3COC(=O)[C@H]23)OCO4)cc(OC)c1OC?
Answer: IC50 [18]: 81 nM; IC50 [2]: 81 nM

Question: What does the source list for COc1ccc2[nH]c(CN[C@@H]3c4cc5c(cc4[C@@H](c4cc(OC)c(OC)c(OC)c4)[C@H]4C(=O)OC[C@@H]43)OCO5)cc2c1?
Answer: IC50 [9]: 100 nM; IC50 [10]: 100 nM

Question: With COc1cc([C@@H]2c3cc4c(cc3[C@H](OCC(=O)N3C(=O)C(=O)c5ccc(Cl)cc53)[C@H]3COC(=O)[C@H]23)OCO4)cc(OC)c1OC as the compound, how does the “Ratio IC50” value [19] read?
Answer: 8.8

Question: What about the IC50 [20] of the same compound?
Answer: 19 nM

Question: What about the “Ratio IC50” value [21] of the same compound?
Answer: 8.8

Question: What about the IC50 [22] of the same compound?
Answer: 19 nM

Question: What does the source list for COc1cc([C@@H]2c3cc4c(cc3[C@H](OC(=O)Cc3c[nH]c5ccccc35)[C@H]3COC(=O)[C@H]23)OCO4)cc(OC)c1OC?
Answer: IC50 [18]: 202 nM; IC50 [2]: 43 nM

Question: Which IC50 [11] does the source give for COc1cc([C@@H]2c3cc4c(cc3[C@@H](Nc3ncccc3C)[C@H]3COC(=O)[C@H]23)OCO4)cc(OC)c1O here?
Answer: 60 nM

Question: What about the IC50 [12] of the same compound?
Answer: 60 nM

Question: What about the IC50 [13] of the same compound?
Answer: 60 nM

Question: What about the IC50 [14] of the same compound?
Answer: 60 nM

Question: What about the IC50 [15] of the same compound?
Answer: 60 nM

Question: With COc1ccc(-c2coc3cc(OCCCC(=O)O[C@@H]4c5cc6c(cc5[C@@H](c5cc(OC)c(OC)c(OC)c5)[C@H]5C(=O)OC[C@@H]54)OCO6)ccc3c2=O)cc1 as the compound, how does the IC50 [23] read?
Answer: 213 nM

Question: And the IC50 [24]?
Answer: 213 nM

Question: What about the IC50 [25] of the same compound?
Answer: 213 nM

Question: And the IC50 [26]?
Answer: 213 nM

Question: And the IC50 [27]?
Answer: 213 nM

Question: What about the IC50 [28] of the same compound?
Answer: 213 nM

Question: And the IC50 [29]?
Answer: 213 nM

Question: With COc1cc([C@@H]2c3cc4c(cc3[C@@H](NC(=S)NC(=O)c3ccccc3Cl)[C@H]3COC(=O)[C@H]23)OCO4)cc(OC)c1OC as the compound, how does the IC50 [6] read?
Answer: 100 nM

Question: And the IC50 [7]?
Answer: 100 nM

Question: And the IC50 [8]?
Answer: 100 nM

Question: For COc1ccc(-c2nnc(SCC(=O)O[C@H]3c4cc5c(cc4[C@@H](c4cc(OC)c(OC)c(OC)c4)[C@H]4C(=O)OC[C@@H]43)OCO5)o2)cc1, which IC50 [30] is on record?
Answer: 2540 nM

Question: What about the IC50 [31] of the same compound?
Answer: 2540 nM

Question: What about the IC50 [32] of the same compound?
Answer: 92400 nM

Question: What about the IC50 [33] of the same compound?
Answer: 2540 nM

Question: What about the IC50 [34] of the same compound?
Answer: 2540 nM

Question: Which IC50 [35] does the source give for CCCC(=O)OC[C@H]1O[C@H](OCc2cn([C@@H]3c4cc5c(cc4[C@@H](c4cc(OC)c(O)c(OC)c4)[C@H]4C(=O)OC[C@@H]43)OCO5)nn2)[C@H](OC(=O)CCC)[C@@H](OC(=O)CCC)[C@H]1OC(=O)CCC here?
Answer: 490 nM

Question: What about the IC50 [36] of the same compound?
Answer: 490 nM

Question: And the IC50 [12]?
Answer: 490 nM

Question: What about the IC50 [37] of the same compound?
Answer: 490 nM

Question: And the IC50 [29]?
Answer: 490 nM
